Tested on: LC3 in MOLM-13 cells
Test: Autophagy activation: LC3 Western blot and confocal microscopy
Conditions: 48 hours in culture
Method: C MOLM-13 cells were treated as in FIG. 1A for 24 or 48 hours. […] D The same cells analysed by Western blot in C were also assessed by confocal microscopy analysis to highlight the LC3 dots (in green); the DNA is highlighted in blue by the Hoechst dye.
After being deposited on a slide via cytospin, the cells were fixed with 4% paraformaldehyde for 7 min, permeabilized with 0.1% TritonX100 in PBS/1% BSA for 5 min and stained with the primary anti-FLT3 (rabbit monoclonal, FLT3 (8F2), #3462, Cell Signaling Technologies, Danvers, MA, USA) or anti-calnexin (CNX, rabbit polyclonal AB22595, AbCam, Cambridge, UK) or anti-calreticulin (CRT, rabbit polyclonal AB2907, AbCam, Cambridge, UK) or anti-LC3 (LC3B Antibody #2775) antibodies, and then with an Alexa Fluor-488 secondary anti-rabbit IgG antibody Molecular Probes, ThermoFisher Scientific, Waltham, MA, USA); the DNA was detected with the TOPRO-3 (Molecular Probes, ThermoFisher Scientific, Waltham, MA, USA) or Hoechst dye (Molecular Probes, ThermoFisher Scientific, Waltham, MA, USA) and the slides were mounted with the Vectashield medium (Vector Laboratories, Burlingame, CA, USA). The images were acquired with a Leica confocal laser scanning microscope TCS SP2 at 40× magnification or with a Zeiss LSM900 at 63× magnification. The images were analysed using the Leica Confocal software (Leica, Milan, Italy) or the Zeiss Zen Blue software. […]

## CC1=C(/C=C/C(C)=C/C=C/C(C)=C/C(=O)O)C(C)(C)CCC1 [R, all-trans retinoic acid]
  autophagy activation (LC3 activity, LC3-II/LC3-I): slight increase in LC3 activity

Reference: US12616673B2 (priority 2020, dated 2026)
